Source: patent publication US12256764B2 (priority 2017, dated 2025)

Test system: rats
Test: Acute oral toxicity (LD50) in rats
Settings: conversion of the MSDS LD50

## OCC(O)CO [Vegetable glycerin, glycerol]
  LD50 oral rat dosage expressed for a 180 pound male: 36 ounces
